Source: patent US20040167061A1, “Substantially homogeneous bio-affecting material having a pre-determined ratio of bioaffecting component to cell targeting component, the method for making such a material and the method of its use” (priority 2003, published 2004)

Columns and labels:
human mesothelioma cells = settings: nude mice with (drug-resistant) human mesothelioma cells; compared to animals treated only with doxorubicin; cited from earlier work
[1] = test system: leukemic cells in peripheral blood; settings: cited from earlier work
NADH-oxidase = settings: plasma membrane redox enzyme; cited from earlier work
advanced ovarian cancer = experiment: unpublished randomized clinical study in advanced ovarian cancer; assay type: in vivo, human; settings: equivalent to 1 mg doxorubicin per day on days 15 through 19 of monthly cycles; time between diagnosis and randomization 18 months
Description: There is an unpublished clinical study of 23 patients with advanced ovarian cancer who were randomized into test (12 patients) and placebo (11 patients) groups. The test group received transferrin-doxorubicin conjugates equivalent to 1 mg doxorubicin per day on days 15 through 19 of monthly treatment cycles.

[2] = test system: metastatic lesions from a sarcoma; settings: treatment begun August 2000
[3] = test system: multi-drug resistant cells; settings: cited from earlier work

glutaraldehyde-prepared transferrin-doxorubicin conjugates
survival (prolonging life) (human mesothelioma cells): significantly prolonging life | decrease of number of leukemic cells in peripheral blood ([1]; 7 patients, 1 mg/day iv for 5 days, within 10-days following therapy): 86% | extension of disease ([1]; bone marrow biopsies before and after treatment): no extension of disease | toxic effects ([1]; seven acute leukemia patients, 1 mg/day intravenously for 5 days): no toxic effects

COc1cccc2c1C(=O)c1c(O)c3c(c(O)c1C2=O)C[C@@](O)(C(=O)CO)C[C@@H]3O[C@H]1C[C@H](N)[C@H](O)[C@H](C)O1 [doxorubicin]
inhibition of NADH-oxidase (NADH-oxidase): efficient inhibitor

transferrin-doxorubicin conjugates
Cox regression estimates of survival rates, test versus placebo (advanced ovarian cancer): significant difference | radiological evidence of tumor ([2]; by January): no radiological evidence of tumor | metastatic lesions in the lungs ([2]; by November): substantially cleared of metastatic lesions | inhibition of NADH-oxidase (NADH-oxidase): inhibit | killing of multi-drug resistant cells [3]: effectively kill
